ChEMBL document CHEMBL1158880, “New cembranoid diterpenes and a geranylgeraniol derivative from the common Caribbean sea whip Eunicea succinea” (1997)

Columns and labels:
Format in all cases: functional
[1] = Cytotoxicity against human Hs 578T cells
M14 = assay: Cytotoxicity against human M14 cells
SNB-75 = assay: Cytotoxicity against human SNB75 cells

**Q.** With C=C(C)[C@H]1CC/C(C)=C/CC[C@@]2(C)O[C@@H]2CC/C(COC(C)=O)=C\[C@@H]1O [ASPERDIOL ACETATE] as the compound, how does the GI50 [1] read?
**A.** Its GI50 is 8.28 µM.

**Q.** And the GI50 (M14)?
**A.** Its GI50 is 8.28 µM.

**Q.** And the GI50 (SNB-75)?
**A.** Its GI50 is 625 nM.
